Measured values reported in the NIST ThermoML archive (doi:10.1016/j.jct.2012.01.003).
± gives the expanded uncertainty stated by the source.

Key:
[1] = refractive index (Na D-line) (dimensionless); details: 298.2 K; 101.33 kPa; Liquid; Standard Abbe refractometry
[2] = 298.2 K; 101.33 kPa; Liquid; Kyoto 210 Density Meter

SMILES | refractive index [1] | mass density [2] [kg/m3]
CCC(C)O (stereo unspecified) [butan-2-ol] | 1.3949 ± 0.0004 | 802.34 ± 0.23
CCCCCCCCCCO [decan-1-ol] | 1.4344 ± 0.0004 | 826.86 ± 0.24
CCCCCCCO [heptan-1-ol] | 1.4224 ± 0.0004 | 818.83 ± 0.24
CCCCCCO [hexan-1-ol] | 1.4155 ± 0.0004 | 815.21 ± 0.24
CCCCCCCCO [octan-1-ol] | 1.427 ± 0.0004 | 825.1 ± 0.24
O [water] | 1.3324 ± 0.0004 | –
